Laboratory results: article PMC7126369, “Identification of a selective inhibitor of IDH2/R140Q enzyme that induces cellular differentiation in leukemia cells” (Cell Communication and Signaling : CCS, 2020)
Positions count from the first letter of the chain named. Like-named read-outs stand apart in the source and are kept apart here.

Tests used:
[1] = biological target: T1, IDH2/R140Q (Homo sapiens, UniProt P48735, R140Q); experiment: Diaphorase/resazurin coupled NADPH depletion enzymatic assay, IDH2/R140Q homodimer; type: biochemical; conditions: read-out: IC50 for α-KG reduction
T1 construct: FLAG (C); purchased BPS Bioscience
T1 sequence (P48735 40-452 R140Q): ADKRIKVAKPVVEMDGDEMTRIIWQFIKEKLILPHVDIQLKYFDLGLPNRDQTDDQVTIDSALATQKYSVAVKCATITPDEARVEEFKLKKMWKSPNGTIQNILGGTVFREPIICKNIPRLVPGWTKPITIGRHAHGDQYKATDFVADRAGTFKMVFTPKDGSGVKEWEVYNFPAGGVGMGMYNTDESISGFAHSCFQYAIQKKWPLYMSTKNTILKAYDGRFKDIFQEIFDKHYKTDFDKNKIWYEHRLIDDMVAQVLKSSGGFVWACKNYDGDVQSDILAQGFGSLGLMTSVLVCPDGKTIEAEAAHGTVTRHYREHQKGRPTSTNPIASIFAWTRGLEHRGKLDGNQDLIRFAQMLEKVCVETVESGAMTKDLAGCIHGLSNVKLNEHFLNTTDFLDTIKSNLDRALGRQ
Experimental: (§1) The compounds were dissolved to a concentration of 20 mM in pure DMSO. Diaphorase/resazurin coupled NADPH deletion or production assays were used to measure the activity of IDH mutants or wild-type IDH (IDH/WT) enzymes. […] Afterwards, 20 μL of the gradient concentrations of compound dilution were added to this mixture and incubated at 25 °C for 1 h or 16 h. […] Further, 20 μL of 4X assay buffer containing 0.6 mM isocitrate was used for enzymatic reaction.

[2] = biological target: T2, IDH2/WT (Homo sapiens, UniProt P48735); experiment: Diaphorase/resazurin coupled NADPH production enzymatic assay, IDH2/WT; type: biochemical; conditions: incubation time 16 h, read-out: IC50 for isocitrate to α-KG
T2 construct: FLAG (C); purchased BPS Bioscience
T2 sequence (P48735 40-452): T1 sequence (P48735 40-452 R140Q) with Q101R
Experimental: as §1

[3] = biological target: T3, IDH1/R132H (Homo sapiens, UniProt O75874, R132H); experiment: Enzymatic assay, IDH1/R132H; type: biochemical; conditions: incubation time 16 h, read-out: IC50 for α-KG reduction
T3 construct: FLAG (C); purchased BPS Bioscience
T3 sequence (O75874 whole entry R132H): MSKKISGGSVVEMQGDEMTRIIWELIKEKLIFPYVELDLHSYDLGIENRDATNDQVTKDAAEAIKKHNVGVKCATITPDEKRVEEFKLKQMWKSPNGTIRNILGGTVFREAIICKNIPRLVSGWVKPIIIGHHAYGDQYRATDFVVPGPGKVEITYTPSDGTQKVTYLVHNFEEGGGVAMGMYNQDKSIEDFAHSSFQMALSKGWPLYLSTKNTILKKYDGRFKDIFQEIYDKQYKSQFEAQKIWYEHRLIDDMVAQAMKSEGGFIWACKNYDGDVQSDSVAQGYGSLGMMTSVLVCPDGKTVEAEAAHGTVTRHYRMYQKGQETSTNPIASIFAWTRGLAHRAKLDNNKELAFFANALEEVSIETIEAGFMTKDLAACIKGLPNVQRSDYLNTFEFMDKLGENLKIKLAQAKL
Experimental: Analogously, a mixture of the IDH1/R132H enzyme (0.2 μg/mL) and NADPH (30 μM) was prepared in the assay buffer [10 mM MgCl2, 150 mM NaCl, 20 mM Tris-Cl (pH 7.5), 0.05% BSA, and 2 mM β-mercaptoethanol], after which compound dilutions were added and incubated for 16 h at 25 °C. The activity was measured using the same method as for IDH2/R140Q.

[4] = biological target: T4, IDH1/WT (Homo sapiens, UniProt O75874); experiment: Enzymatic assay, IDH1/WT; type: biochemical; conditions: incubation time 16 h, read-out: IC50 for isocitrate to α-KG
T4 construct: FLAG (C); purchased BPS Bioscience
T4 sequence (O75874 whole entry): as the sequence (O75874 whole entry R132H) above, with H132R counted along it
Experimental: A mixture of the IDH1/WT (0.08 μg/mL) and NADP (50 μM) was prepared in the assay buffer [10 mM MgCl2, 150 mM NaCl, 20 mM Tris (pH 7.5), 2 mM β-mercaptoethanol, and 0.05% BSA], after which compound dilutions were added and incubated for 16 h at 25 °C. Other operations were referred to the assay of IDH2/WT.

[5] = system: TF-1(IDH2/R140Q) cells; experiment: D-2-HG assay (LC-MS) in cells; type: cell-based; conditions: 72 h, 3 days of treatment, read-out: IC50 of intracellular D-2-HG production
Experimental: (§2) TF-1(IDH2R140Q) cells were seeded in a 12-well plate at a density of 5 × 10^4/mL. The test compound was added in different concentration gradients (3000, 1000, 333.33, 111.11, 37.04, 12.35, 4.12, and 1.37 nM). The cells were collected after 3 days of treatment. The cell pellet was suspended in 100 μL 80% aqueous methanol solution, containing 1 μg/mL Phenacetin as the internal standard. The cell lysate was centrifuged at 13,000 rpm for 10 min. The precipitate was removed at 4 °C and stored in an − 80 °C refrigerator. Before injection, the cell lysate was centrifuged again at 13,000 rpm for 10 min. The supernatant was transferred into the liquid phase cannula for injection. The test instrument was a Q Exactive™ Plus-Orbitrap™ MS, Thermo Scientific benchtop quadrupole-orbitrap high resolution mass spectrometer. The column used was Waters™ ACQUITY™ UPLC HSS-T3–1.8 μm, […] × 100 mm (part No. 186003539). The mobile phase was: Phase A, 0.1% aqueous formic acid (chromatographically pure); and Phase B, acetonitrile (chromatographically pure). The gradients were set as 1% B for 1.5 min → 70% B for 0.5 min → 1% B for 1.5 min → 0% B. The column was re-equilibrated for 2 min between injections. A temperature of 40 °C was set for the column with a flow rate of 0.2 mL/min. […] D-2-HG and Phenacetin were monitored by mass transitions of m/z 147 → m/z 129 and m/z 178 → m/z 147, respectively. […]

[6] = system: TF-1(IDH2/R140Q) cells; experiment: GM-CSF-independent proliferation assay; type: cell-based; conditions: 3 μM, 7 days
Experimental: (§3) The cell proliferation was detected by CellTiter 96® AQueous One Solution Cell Proliferation Assay Kit (Promega) according to the protocol. Briefly, TF-1(WT) and TF-1(IDH2/R140Q) cells were cultured in complete growth medium that is supplemented with 2 ng/mL GM-CSF. Prior to the proliferation assay, the cells were washed three times with PBS to eliminate GM-CSF. These cells were transferred to 96 well plates (5000 cells per well), with each well containing 100 μL growth medium without GM-CSF, and treated with CP-17 (1 or 3 μM) for 7 days. Then 20 μL per well of CellTiter 96® AQueous One Solution Reagent were added to each well. The plate was incubated at 37 °C for 4 h in a humidified, 5% CO2 atmosphere, and then the absorbance at 490 nm was recorded using a 96-well plate reader. Three independent repetitive experiments were carried out and analyzed by Graphpad Prism 5.0. […] T-test was used to compare the difference significance with control group and the data meet the assumption of the test.

[7] = system: TF-1(WT) cells; experiment: GM-CSF-independent proliferation assay; type: cell-based; conditions: 3 μM, 7 days
Experimental: as §3

[8] = system: TF-1(IDH2/R140Q) cells; experiment: EPO-induced differentiation assay; type: cell-based; conditions: 1 μM, 7 days
Experimental: TF-1(WT) and TF-1(IDH2/R140Q) cells were washed three times by PBS to remove GM-CSF and treated with CP-17 (1 or 3 μM) and 5 ng/mL EPO for 7 days.
as §2, with “pure).” for “pure). The gradients were set as 1% B for 1.5 min → 70% B for 0.5 min → 1% B for 1.5 min → 0% B. The column was re-equilibrated for 2 min between injections. A temperature of 40 °C was set for the column with a flow rate of 0.2 mL/min.”

[9] = system: TF-1(IDH2/R140Q) cells; experiment: Histone methylation assay (western blot); type: cell-based; conditions: 1 and 3 μM, 7 days
Experimental: TF-1(WT) and TF-1(IDH2/R140Q) cells were treated with CP-17 (1 or 3 μM) in the presence of recombinant human GM-CSF for 7 days and then lysed and evaluated for the expression of H3K9me3, H3K4me3, H3K27me3, and H3 with specific antibodies by western blot. The total amount of histone H3 was used as the loading control. Three independent repetitive experiments were carried out.

[10] = system: AML patients carrying mutant IDH2; parameters: method as in PMID 29346478, PMID 29346477; conditions: patients responding to Enasidenib; cited from earlier work

Row | IC50 ([1]; incubation time 1 h) [nM] | IC50 ([1]; incubation time 16 h) [nM] | IC50 [2] [nM] | IC50 [3] [nM] | IC50 [4] [nM] | IC50 [5] [nM] | SMILES | GM-CSF-independent growth [6] | Proliferation [7] | EPO-induced differentiation (color change, hemoglobin γ expression) [8] | Histone methylation (H3K4me3, H3K9me3, H3K27me3) [9] | Patients who develop differentiation syndrome [10] [%]
1 | 99.9 | 40.8 | 2270 | > 5000 | > 5000 | 141 | Cc1ccc(Cl)cc1NC(=O)Nc1cc(NC(=O)c2ccccc2)ccc1N1CCCC1 [CP-17, N-(3-(3-(5-chloro-2-methylphenyl)ureido)-4-(pyrrolidin-1-yl)phenyl)benzamide] | significantly inhibited | no obvious effect | restored the EPO-induced color change and hemoglobin γ expression | dose-dependent decrease in histone methylation | –
2 | – | – | – | – | – | – | CC(C)(O)CNc1nc(Nc2ccnc(C(F)(F)F)c2)nc(-c2cccc(C(F)(F)F)n2)n1 [Enasidenib] | – | – | – | – | 11.7
